# Measurements as given in patent publication US7368286B2, “Method and device for identifying substances capable of modulating adipocyte differentiation” (Genfit, priority 2002, dated 2008).
# Test system: aP2 and PPAR GAMMA receptor mRNA in 3T3-L1 cells
# Experiment: Northern blot of adipocyte markers in 3T3-L1 cells infected with MFG-Neo or MFG-REV retrovirus
# Assay type: cell-based
# Settings: control cells (MFG-Neo)
# Procedure: 3T3-L1 cells were infected with either MFG-Neo or MFG-REV retrovirus and treated for 8 days with a mixture containing IBMX and insulin (“Mix”), with or without 1 μM rosiglitazone. mRNA was then extracted and analyzed by Northern blot using the indicated probes.
# RNA extraction and Northern blot analyses were carried out according to the previously described method (Staels, B. et al., Arteriosclerosis and Thrombosis 1992, 12(3): 286-294) using rat Rev-erb alpha, murine PPAR gamma and murine aP2, chicken beta-actin and human 36B4 cDNA probes.
# Cells post-confluent after two days of culture (designated day D0) were transferred to differentiation medium (DMEM, 10% FCS, 1 μM dexamethasone, 10 μg/ml insulin and 0.5 mM 3-methyl-1-isobutylxanthine (IBMX) (Sigma, St Louis, Mo., USA)) for two days. Cells were then grown in post-differentiation medium (DMEM, 10% FCS, insulin) with or without rosiglitazone. The medium was changed every day. Stable 3T3-L1 pre-adipocytes expressing the REV-ERB ALPHA receptor were grown in the same conditions but differentiated without dexamethasone. After the treatment, cells were fixed with 10% formaldehyde in PBS and stained with Oil Red O (Sigma, St Louis, Mo., USA). Alternatively, total RNA was extracted as described earlier.
# 3T3-L1 pre-adipocytes were then infected with the resulting virus. […]
smiles,measurement,value
CN(CCOc1ccc(CC2SC(=O)NC2=O)cc1)c1ccccn1 (stereo not shown) [rosiglitazone],time until high aP2 and PPAR GAMMA receptor mRNA levels were observed,8 to 12 days
